# Reference: patent publication EP0427799B1, “METHOD AND COMPOUNDS FOR AICA RIBOSIDE DELIVERY AND FOR LOWERING BLOOD GLUCOSE” (GENSIA, INC., priority 1989, dated 1990)
# Values joined by “and” are separate entries in the source; they are usually repeats but may differ in a detail not shown here. Identical values can stand only once.
# How the values were obtained:
# ischemic heart tissue = assay: Adenosine, AICA riboside and ZMP levels in ischemic heart tissue; assay type: in vivo, rats; details: ischemic rat heart tissue
# Procedure: Prodrug compounds of the present invention and AICA riboside were tested for their activity in enhancing the production of adenosine and increasing production of AICA riboside from ZMP in ischemic heart tissue in rats.
# Samples of heart tissue after ischemia were analyzed for nucleoside and nucleotide levels. Samples were measured for adenosine, AICA riboside and ZMP concentrations by HPLC.
# skin flap = assay: Protection against ischemic injury in skin flap model; assay type: in vivo, rats; details: skin flap viability 3 days post-surgery; pretreatment 45 minutes before surgery (SOD at time of surgery)
# Procedure: Compounds were tested for their activity in protecting against ischemic injury in a skin flap model in rats.
# Animals were pretreated with AICA riboside or AICA riboside plus adenosine deaminase (ADA) 45 minutes before surgery or, as a positive control, superoxide dismutase (SOD) was used at the time of surgery. A skin flap was raised on the abdomen of a rat for 6 hours and then sewn down. The percent viability of the flaps was evaluated at 3 days post-surgery.
# This effect was not as pronounced in the presence of ADA, supporting the importance of adenosine's protective role in this setting.
# Blood Glucose [1] = assay: Effect on blood glucose in rabbits (hexokinase procedure); assay type: in vivo, Rabbits (New Zealand White); details: for Blood Glucose Change(+/-): 2H post-dose vs pre-dose; for Blood Glucose Change(+/-) / Blood Glucose 2H Post-Dose: individual rabbits
# Procedure: Rabbits (New Zealand White) were given IV doses of AICA riboside, either 2 ml/kg (100 mg/kg) or 4 ml/kg (200 mg/kg). Blood was obtained by venipuncture before AICA riboside administration and two hours post-administration. Blood glucose concentrations before administration and two hours post-administration were measured by the hexokinase procedure (see Example K). The percent change (+/-) from pre-dose values are reported. Both dosage levels decreased blood glucose levels as compared with pre-AICA riboside administration levels.
# (§1) AICA riboside (100, 250 or 500 mg/kg) or saline (as a control) was administered intraperitoneally to rats. Sixty minutes after AICA riboside administration, the rats were sacrificed by cervical dislocation. Blood glucose was determined spectrophotometrically measuring O.D. at 340 nm by the hexokinase method using the glucose SR Reagent (Medical Analysis Systems, Inc.) Blood lactate and pyruvate were determined spectrophotometrically measuring O.D. at 340 nm using lactate dehydrogenase in the presence of excess NAD or NADH, respectively.
# in vivo = assay: in vivo; parameters: species or system dogs; details: dog
# Procedure: The bioavailability of AICA riboside after oral administration of either AICA riboside or one of the AICA riboside prodrugs of the present invention was evaluated in dogs. Plasma concentrations of AICA riboside and intact prodrug were measured using HPLC. (See Dixon, R., et al., Res. Commun. Chem. Path. Pharm. 65:405-408 (1989)). Bioavailability of AICA riboside was evaluated in terms of the time required to reach maximum plasma concentration (Tmax), the maximum concentration achieved (Cmax) and the area under the plasma concentration-time curve (AUC) from time zero to the last measurable plasma concentration. Absolute bioavailability (F%) was calculated by dividing the AUC for AICA riboside following oral administration of the prodrug (or AICA riboside itself) by the AUC following intravenous administration of an equivalent amount of AICA riboside (100% bioavailability).
# liver glycogen = assay: Effect on liver glycogen in mice; assay type: in vivo; details: 750 mg/Kg
# Procedure: (See Figures 9 and 10A to 10D). The glucose lowering effects of AICA riboside are related temporally to the generation and maintenance of liver ZMP levels in rats. (See Figures 11A and 11B).
# Swiss Webster mice were treated with saline (as a control) or 750 mg/kg of AICA riboside administered intraperitoneally, six animals per group. The mice were sacrificed one hour post-administration The livers were removed and extracted. Liver glycogen was determined by the method of Dubois, et al., Anal. Chem. 28:350-356 (1956). Glucose was measured by the hexokinase method (See Example K).
# Blood glucose [2] = assay: Hypoglycemic effects of oral AICA riboside prodrugs; assay type: in vivo, mice (Swiss Webster); details: equimolar amounts
# Procedure: Male mice (Swiss Webster) were given equimolar amounts of either saline, AICA riboside, or compounds C1 or 10 of Table I orally. Blood glucose levels were measured one hour after administration by the glucose strip method (Chemstrip B.G.).
# adenosine kinase = adenosine kinase (Homo sapiens, UniProt P55263); assay: Inhibition of adenosine kinase; assay type: biochemical
# adenosine kinase, sequence (P55263 whole entry, species assumed, the tested form may be a part): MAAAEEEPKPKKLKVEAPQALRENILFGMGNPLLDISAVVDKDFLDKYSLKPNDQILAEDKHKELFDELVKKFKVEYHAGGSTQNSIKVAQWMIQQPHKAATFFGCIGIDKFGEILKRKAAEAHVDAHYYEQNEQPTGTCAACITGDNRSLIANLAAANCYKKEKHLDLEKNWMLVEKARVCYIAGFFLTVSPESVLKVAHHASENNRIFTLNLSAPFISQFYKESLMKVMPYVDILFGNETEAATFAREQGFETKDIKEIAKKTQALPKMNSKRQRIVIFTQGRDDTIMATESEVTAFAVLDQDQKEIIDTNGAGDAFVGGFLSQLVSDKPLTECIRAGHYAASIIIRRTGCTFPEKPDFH
# hippocampal CA-1 cells = assay: Gerbil model of 5 minutes global brain ischemia followed by reperfusion; assay type: in vivo; details: ICV and IP administration
# Description: (§2) The claimed prodrugs, by delivering AICA riboside should provide similar efficacy. […] Both intracerebroventricular (ICV) and IP administration of AICA riboside was effective in the gerbil model In addition to the gerbil, two different rat models of focal ischemia were also used to evaluate AICA-riboside. One model employed partial reperfusion and the second total reperfusion.
# infarct size = assay: Rat models of focal brain ischemia (partial and total reperfusion); assay type: in vivo; details: 800 mg/kg IP
# Description: as §2
# insulin = assay: Plasma insulin levels in humans; assay type: in vivo; details: human subjects; precedes the drop in blood glucose
# Procedure: Human (male) volunteers were given a 15-minute intravenous infusion of 50 mg/kg AICA riboside. Plasma concentrations of immunoreactive insulin was determined by RIA during and following the administration for about 4 hours. (RIA kit, Amersham Clinical).
# lactate and pyruvate = assay: Blood lactate and pyruvate in rats; assay type: in vivo
# Procedure: as §1
# [3] = 2ml (100 mg/kg) IV, rabbit 10 not included
compound,measurement,setting,value
"NC(=O)c1ncn([C@@H]2O[C@H](CO)[C@@H](O)[C@H]2O)c1N [AICA riboside, 1-β-D-ribofuranosyl-5-aminoimidazole-4-carboxamide]",Tissue Concentration Adenosine,ischemic heart tissue; Prodrug A at dose equimolar to AICA riboside,409 ± 60 nmol/g
same,Tissue Concentration AICA Riboside,ischemic heart tissue; equimolar doses,774 ± 73 nmol/g
same,% Viable,skin flap,75%
same,Blood Glucose Change(+/-),Blood Glucose [1]; 2ml (100 mg/kg) IV,-25 mg% and +102* mg% and -24 mg% (2×) and -28 mg% and +10 mg% and -22 mg% and -23 mg% and -11 mg% and -53 mg%
same,Blood Glucose 2H Post-Dose,Blood Glucose [1]; 2ml (100 mg/kg) IV,93 mg% and 215* mg% and 87 mg% and 89 mg% (2×) and 122 mg% and 96 mg% and 98 mg% and 106 mg% and 99 mg%
same,"Blood Glucose 2H Post-Dose, Mean",Blood Glucose [1]; [3],98 mg%
same,"Blood Glucose Change(+/-), Mean",Blood Glucose [1]; [3],-22 mg%
same,Blood Glucose Change(+/-),Blood Glucose [1]; 4ml (200mg)/kg IV,-14 mg% and -76 mg% and -42 mg% and -69 mg% and -59 mg%
same,Blood Glucose 2H Post-Dose,Blood Glucose [1]; 4ml (200mg)/kg IV,100 mg% and 32** mg% and 79 mg% and 56 mg% and 62 mg%
same,"Blood Glucose 2H Post-Dose, Mean",Blood Glucose [1]; 4ml (200mg)/kg IV,66 mg%
same,"Blood Glucose Change(+/-), Mean",Blood Glucose [1]; 4ml (200mg)/kg IV,-52 mg%
same,AUC(0-t),in vivo; iv,8300 ng·h/mL
same,F,in vivo; iv,100%
same,AUC(0-t),in vivo; po,900 ng·h/mL
same,Cmax,in vivo; po,1100 ng/mL
same,Tmax,in vivo; po,45 min
same,bioavailability,in vivo; po,11%
same,increase of liver glycogen,liver glycogen,55%
same,hypoglycemia after oral administration,Blood glucose [2],did not produce detectable hypoglycemia
same,inhibition of adenosine kinase,adenosine kinase,weak inhibitor
same,degeneration of hippocampal CA-1 cells,hippocampal CA-1 cells,prevented the degeneration of hippocampal CA-1 cells
same,infarct size,infarct size,highly significant reduction in infarct size
same,serum insulin levels,insulin,significant elevations of serum insulin levels
same,lactate to pyruvate ratio,lactate and pyruvate,not changed
same,"liver glycogen, serum lactate and pyruvate",lactate and pyruvate,elevation of liver glycogen and of serum lactate and pyruvate
